Results on 32 compounds are retold here after PubChem BioAssay AID1188 (EPA DSSTox, 2008).

Molecules are shown by their SMILES. Active and inactive are the calls of the source.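 How the source made its calls: active means a concentration killing half the fathead minnows in the acute test was determined; inconclusive means some fish died but not half at top dose; inactive means no fish died even at top dose.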

The data set relates to Fathead minnow (Pimephales promelas) acute toxicity, lethality. Description: DSSTox (EPAFHM) EPA Fathead Minnow Acute Toxicity. The gist of the method: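 Activity score is an integer 1–100 scaling of log10(1/LC50 in mmol) between dataset minimum and maximum, highest potency = 100. Underlying LC50 values (mg) come from the U.S. EPA MED database.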
As for `COC(=O)c1ccc([N+](=O)[O-])cc1`, the Potency was 131 µM.
Turning to `Oc1c(I)cc(I)cc1I`, the Potency is 2.56 µM.
In the case of `CCC1(CCC(C)C)C(=O)NC(=O)NC1=O`, the Potency was 377 µM.
For the compound `CCCCCCCCO`, the Potency is 104 µM.
As to `O=c1cc[nH]c(=O)[nH]1`, the outcome was “inactive; moa not determined either due to lack of toxicity at saturation or late test res”.
`CCCCCCCCBr`: the Potency is 4.34 µM.
On to `CN(C)Cc1ccccc1`, for which the Potency is 280 µM.
Same read-out and setting: next, `CCOC(=O)CCCCC(=O)OCC`: 89.9 µM; `Nc1ccccc1`: 1130 µM; `ClCCCCl`: 982 µM.
The same measure, in the same setting: next, `CCC(C)C(C)C=O` (configuration not stated): 140 µM; `Clc1ccccc1Cl`: 64 µM.
In the case of `CCCCOC(=O)CCCCC(=O)OCCCC`, the Potency is 14.1 µM.
Consider `Nc1ccc(Br)cn1`, for which the Potency is 1020 µM.
For the compound `Cc1nc(C)c(C)o1`, the Potency is 4040 µM.
For the compound `Nc1ccc(Cl)c(Cl)c1Cl`, the Potency was 18.5 µM.
The same measure, in the same setting: next, `O[C@@H]1C[C@H]2CC[C@@H]1C2`: 2030 µM; `N#Cc1cc(I)c(O)c(I)c1`: 18.3 µM.
Take `CNC(=O)Oc1ccccc1OC(C)C`: the Potency is 42.1 µM.
Consider `CCCCCCCCCCC(C)=O`, for which the Potency was 6.4 µM.
As for `CC(C)c1ccc(C=O)cc1`, the Potency is 44.7 µM.
In the case of `O=c1cc(-c2ccccc2)oc2ccccc12`, the Potency is 15.7 µM.
For `ClCC(Cl)CCl`, the Potency is 391 µM.
On the same count and under the same terms, next, `COC(C)=O`: 4820 µM.
`CC(O)CCl` (configuration not stated): the Potency is 2590 µM.
Take `CCCCCCCCCC(C)=O`: the Potency was 8.81 µM.
Still for that read-out and setting: for `N#CCCl` the value was 17.8 µM; for `O=[N+]([O-])c1ccc(F)cc1`, 201 µM.
Take `CCOC(=O)N(C(=O)OCC)C(=O)OCC`: the Potency was 57 µM.
On to `O=Cc1cc([N+](=O)[O-])ccc1Cl`, for which the Potency was 20.9 µM.
`CC(=O)c1ccc(Cl)c([N+](=O)[O-])c1`: the Potency was 27.6 µM.
Consider `O=C(c1ccc(Br)cc1)c1cccnc1`, for which the Potency was 77.8 µM.
